Values of other authors, collected in US6517854B2, “Antimicrobial sanitizing lotion with skin protection properties” (priority 1999, dated 2003).

Tests used:
gram-negative bacteria = conditions: organisms listed in the 1st table r28-r63
fungi and yeasts = conditions: organisms listed in the 1st table r65-r73
gram-positive bacteria = conditions: organisms listed in the 1st table r1-r26

Oc1cc(Cl)ccc1Oc1ccc(Cl)cc1Cl [TRICLOSAN, 2,4,4′-trichloro-2′-hydroxydiphenyl ether]
demonstrated efficacy: efficacy against gram-negative bacteria (gram-negative bacteria) | efficacy against fungi and yeasts (fungi and yeasts) | efficacy against gram-positive bacteria (gram-positive bacteria)
